# According to ChEMBL document CHEMBL1201862, “PubChem BioAssay data set” (2004):
#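 Tested at 5 concentrations; 48 h exposure; 96-well plates; endpoints linearly interpolated, else capped at highest concentration. Abbreviation: GI50, concentration required for 50% inhibition of growth.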 Calls of active or inactive are those of the source. Cut-off read from the data, not from the text of the source: active = GI50 up to about 1.1 µM and inactive = higher.
# What was measured:
# Experiment in all cases: growth of human tumour cells (NCI), 48 h
# [1] = test system: NCI-H226
# [2] = test system: NCI-H23
# [3] = test system: OVCAR-8
# [4] = test system: SN12C
# [5] = test system: M14
# [6] = test system: 786-0
# [7] = test system: BT-549
# [8] = test system: SF-539
# [9] = test system: SK-MEL-5
# [10] = test system: LOX IMVI
# [11] = test system: SW-620
# [12] = test system: HCT-15
# [13] = test system: HCT-116
# [14] = test system: A498
# [15] = test system: HOP-62
# [16] = test system: UO-31
# [17] = test system: EKVX
# [18] = test system: COLO 205
# [19] = test system: NCI/ADR-RES
# [20] = test system: NCI-H460
# [21] = test system: OVCAR-5
# [22] = test system: SK-MEL-2
# [23] = test system: SK-OV-3
# [24] = test system: U-251
# [25] = test system: MDA-MB-231
# [26] = test system: SK-MEL-28
# [27] = test system: TK-10
# [28] = test system: RXF 393
# [29] = test system: OVCAR-3
# [30] = test system: KM12
# [31] = test system: Malme-3M
# [32] = test system: SNB-19
# [33] = test system: MDA-N
# [34] = test system: ACHN
# [35] = test system: SF-295
# [36] = test system: CCRF-CEM
# [37] = test system: UACC-257
# [38] = test system: SF-268
# [39] = test system: NCI-H522
# [40] = test system: CAKI-1
# [41] = test system: T47D
# [42] = test system: MDA-MB-435
# [43] = test system: RPMI-8226
# [44] = test system: HCC 2998
# [45] = test system: SNB-75
# [46] = test system: PC-3
# [47] = test system: MCF7
# [48] = test system: A549
# [49] = test system: OVCAR-4
smiles,measurement,setting,value
Cc1cc2[nH]c3c(C#N)c(-c4ccccc4)c(/C=N/c4cccc(C(F)(F)F)c4)c(=O)n3c2cc1C,GI50,[1],> 100 µM (inactive)
same,GI50,[2],> 100 µM (inactive)
same,GI50,[3],> 100 µM (inactive)
same,GI50,[4],89.9 µM (inactive)
same,GI50,[5],> 100 µM (inactive)
same,GI50,[6],94 µM (inactive)
same,GI50,[7],91.6 µM (inactive)
same,GI50,[8],63.4 µM (inactive)
same,GI50,[9],> 100 µM (inactive)
same,GI50,[10],97.9 µM (inactive)
same,GI50,[11],59.7 µM (inactive)
same,GI50,[12],74.1 µM
same,GI50,[13],40.8 µM (inactive)
same,GI50,[14],> 100 µM (inactive)
same,GI50,[15],22.6 µM (inactive)
same,GI50,[16],> 100 µM (inactive)
same,GI50,[17],> 100 µM (inactive)
same,GI50,[18],> 100 µM (inactive)
same,GI50,[19],> 100 µM (inactive)
same,GI50,[20],> 100 µM (inactive)
same,GI50,[21],> 100 µM (inactive)
same,GI50,[22],> 100 µM (inactive)
same,GI50,[23],99.5 µM (inactive)
same,GI50,[24],> 100 µM (inactive)
same,GI50,[25],> 100 µM (inactive)
same,GI50,[26],> 100 µM (inactive)
same,GI50,[27],> 100 µM (inactive)
same,GI50,[28],37 µM (inactive)
same,GI50,[29],16.3 µM (inactive)
same,GI50,[30],38.4 µM (inactive)
same,GI50,[31],> 100 µM (inactive)
same,GI50,[32],> 100 µM (inactive)
same,GI50,[33],79.3 µM (inactive)
same,GI50,[34],83.9 µM (inactive)
same,GI50,[35],64.3 µM (inactive)
same,GI50,[36],72.8 µM (inactive)
same,GI50,[37],> 100 µM (inactive)
same,GI50,[38],64.7 µM (inactive)
same,GI50,[39],39.4 µM (inactive)
same,GI50,[40],89.9 µM (inactive)
same,GI50,[41],45 µM (inactive)
same,GI50,[42],> 100 µM (inactive)
same,GI50,[43],70 µM (inactive)
same,GI50,[44],> 100 µM (inactive)
same,GI50,[45],> 100 µM (inactive)
same,GI50,[46],> 100 µM (inactive)
same,GI50,[47],79.8 µM (inactive)
same,GI50,[48],> 100 µM (inactive)
same,GI50,[49],99.5 µM (inactive)
